Where two headings read alike, the source gives them in different places.
Assays:
[1] = target: T1, Human M3 receptor (Homo sapiens, UniProt P20309); assay: FLIPR Calcium 6 assay for inhibitory activity against Human M3 receptor in CHO cells; format: cell-based; details: FLIPR calcium signal, antagonist mode
T1 construct: expressed in transfected cells
Method: (§1) CHO cell lines stably expressing Human M2 and Human M3, respectively, were used. The effects of the compounds on the activity of the Human M2 and Human M3 receptors were determined using the FLIPR Calcium 6 Assay Kit. The effects of the test substances on Human M2 and Human M3 were studied according to changes in cell signal intensity, and the corresponding concentration-response curves were calculated.
(§2) • 1. The Human M2-CHO and Human M3-CHO cell lines were cultured in an F-12 culture medium containing 10% fetal bovine serum (AusGeneX, FBS500-S) and 0.2 mg/mL Hygromycin B (Solarbio, H8080-1g) at a culture temperature of 37 °C with 5% carbon dioxide. • 2. Cell passage: The old culture medium was removed in a biosafety cabinet, and the cells were washed once with PBS; 1 mL of 0.25% Trypsin-EDTA (Gibco, 25200-072) solution was then added; and the cells were incubated at 37 °C for about 2 min. When the cells were detached from the bottom of the dish, about 5 mL of complete culture medium pre-heated at 37 °C was added. The cell suspension was gently pipetted to separate the aggregated cells. The cell suspension was transferred to a sterile centrifuge tube and centrifuged at 1000 rpm for 5 min. • 3. In order to maintain the physiological activity of the cells, the experimental cell confluence was controlled at about 80% as observed under an inverted microscope (Olympus, CKX53).
(§3) • 1. Cell plating: Human M2-CHO and Human M3-CHO cells were digested, collected, resuspended, counted, and then seeded into a 384-well cell plate (Corning, 3764) at a density of 1.2 × 10^4 cells/25 µL /well; the cell plate was then incubated in a 5% CO2 incubator at 37 °C for about 16-20 h. • 2. On day 2, an Assay Buffer (20 mM HEPES + 1× HBSS) was prepared according to the instructions of the FLIPR Calcium 6 Assay Kit (Molecular Devices, R8191); after 20× Component A was freeze-thawed to room temperature, it was diluted to 1× loading buffer with the Assay buffer, and placed at room temperature for later use. • 3. The culture medium in the cell plate was removed, 35 µL of the 1× loading buffer described above was quickly added to each well, and the cell plate was centrifuged using a microplate low speed centrifuge and then incubated in the dark at 37 °C for 120 min. • 4. The working solutions of a positive compound and the test compounds were each prepared in a 96-well dilution plate (Biao Sen, P-0.6-BSA-96-S); 5 µL of each solution was transferred to the corresponding cell wells; and the cell plate was incubated at 37 °C for 30 min in the dark. • 5. An agonist working solution was prepared and transferred to a 384-well compound plate (Corning, 264573) at 20 µL /well. • 6. The cell plate (Corning, 3764), the 384-well compound plate (Corning, 264573), and pipette tips were placed at corresponding positions of the FLIPR instrument; 10 µL of the agonist diluted in step 5 was added to each experimental well using the FLIPR® Penta; and data were collected at the wavelength of 515-575 nm. • 7. The signal values were plotted against the compound concentrations, and based on a non-linear regression method using the GraphPad Prism software, the curves were fit, and the IC50 values were calculated.
(§4) • 1) Z′ factor = 1−3 × (SDMax+SDMin)/(AVGMax−AVGMin) [formula] • 2) CV Max = (SDMax/AVGMax) × 100% [formula] • 3) CV Min = (SDMin/AVGMin) × 100% [formula] • 4) Signal−to−noise ratio S/B = AVGMax /AVGMin [formula] • 5) The IC50 values of the compounds were calculated using the GraphPad Prism non-linear fitting formula: Y = Bottom + (Top−Bottom)/(1+10^(∧)((LogIC50−X)×HillSlope)) [formula] • 6) % inhibition rate formula: [formula] • Ratiopositive: mean value of positive control. • Ratiovehicle: mean value of negative control (0.1% DMSO).
(§5) According to the experimental method described above, the inhibitory activity of the compounds disclosed herein against Human M2 and M3 receptors was assayed with AFDX-116 as a positive control compound. Table 3. […]

[2] = target: T2, Human M2 receptor (Homo sapiens, UniProt P08172); assay: FLIPR Calcium 6 assay for inhibitory activity against Human M2 receptor in CHO cells; format: cell-based; details: for M3/M2 selectivity: IC50 ratio of M3/M2
T2 construct: expressed in transfected cells
T2 sequence (P08172 1-466): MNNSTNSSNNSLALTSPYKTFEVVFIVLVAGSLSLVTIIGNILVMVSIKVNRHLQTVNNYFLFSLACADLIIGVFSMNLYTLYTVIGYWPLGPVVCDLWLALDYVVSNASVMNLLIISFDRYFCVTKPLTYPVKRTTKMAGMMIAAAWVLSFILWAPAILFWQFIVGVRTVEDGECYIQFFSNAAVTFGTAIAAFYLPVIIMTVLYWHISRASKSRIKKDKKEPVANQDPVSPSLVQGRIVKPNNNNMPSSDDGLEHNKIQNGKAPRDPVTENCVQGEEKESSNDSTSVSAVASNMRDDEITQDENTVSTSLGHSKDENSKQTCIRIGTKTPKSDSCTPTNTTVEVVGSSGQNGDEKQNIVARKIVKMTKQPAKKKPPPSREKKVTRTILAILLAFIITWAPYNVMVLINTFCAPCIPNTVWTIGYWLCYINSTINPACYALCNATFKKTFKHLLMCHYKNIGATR
Method: as §1, §2, §3, §4, §5

[3] = system: guinea pig myopia model; assay: In vivo efficacy evaluation in form-deprivation guinea pig myopia model (diopter by infrared photorefractor); details: 20 µL/eye once daily; for slowing down the progression of refraction decrease: 0.5 wt% eye drops, versus negative control group
Excerpt: Objective: To evaluate the inhibitory effect of compound 2 on the progression of myopia (refractive error) in a guinea pig myopia model. Young guinea pigs have inherent refractive hyperopia, which gradually progresses towards emmetropization during eye development. Form deprivation accelerates the process of emmetropization. In this test, the delaying effect of compound 2 on the process of refractive emmetropization in modeled young guinea pigs was investigated.
Sample preparation: 0.5 wt% compound 2 eye drops were formulated with compound 2 and a 10 wt% aqueous sulfobutylether-beta-cyclodextrin solution.
Grouping: The guinea pigs were evenly divided into 3 groups according to the refractive value of the right eye: a negative control group, a model control group, and a compound 2 group.
Modeling: Animals other than the negative control group were modeled. A myopia model was made by suturing the eyelid of the right eye. The modeling procedure is as follows: After hair removal was performed on the right eyes of all animals, the right eyes were sutured in a U-shape to achieve form deprivation and accelerate the process of emmetropization. The guinea pigs were fed for 28 days after the first suture.
Administration: Starting from the day of suture modeling, eye drops were administered to the right eyes of the animals in each group according to settings (the samples for administration are shown in Table 4) at 20 µL /eye once daily for 28 consecutive days. Table 4. Administration and dosage design for each group
Test: Diopter was measured on day 15 and day 29 after modeling using an infrared photorefractor (ST-PR.01, Striatech).

[4] = Human M2-CHO cells, FLIPR calcium signal, antagonist mode, read-out: M2 IC50

T1 sequence (P20309 whole entry): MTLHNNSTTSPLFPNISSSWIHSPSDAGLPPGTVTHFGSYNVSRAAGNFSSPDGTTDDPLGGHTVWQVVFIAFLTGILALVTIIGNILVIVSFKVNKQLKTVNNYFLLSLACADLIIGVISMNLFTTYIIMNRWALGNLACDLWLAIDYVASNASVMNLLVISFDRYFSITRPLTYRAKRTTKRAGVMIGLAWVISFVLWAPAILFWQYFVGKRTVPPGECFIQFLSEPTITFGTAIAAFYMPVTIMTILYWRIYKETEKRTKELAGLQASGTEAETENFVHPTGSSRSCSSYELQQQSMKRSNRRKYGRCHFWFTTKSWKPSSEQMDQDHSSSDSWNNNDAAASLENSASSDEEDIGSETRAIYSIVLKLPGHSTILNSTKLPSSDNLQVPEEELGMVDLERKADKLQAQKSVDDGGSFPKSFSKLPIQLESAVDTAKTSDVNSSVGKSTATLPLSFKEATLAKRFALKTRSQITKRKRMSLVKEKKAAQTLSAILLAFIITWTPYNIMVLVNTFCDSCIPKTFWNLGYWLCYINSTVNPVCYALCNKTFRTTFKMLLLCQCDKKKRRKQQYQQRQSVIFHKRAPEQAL

Structure (SMILES)	IC50 [1]	IC50 [2, 4]	M3/M2 selectivity [2]	IC50 [2]	diopter (refractive value) ([3]; day 15, 0.5 wt% compound 2 eye drops, right eye, form deprivation by eyelid suture)	slowing down the progression of refraction decrease ([3]; day 15 of administration)	slowing down the progression of refraction decrease ([3]; day 29 of administration)
CCN(CCN1C2CCCC1CC2)C(=O)CCC(=O)N1c2ccccc2C(=O)Nc2cccnc21 [Compound 5]	673 nM		245.6	2.74 nM			
CCN(CCN1CCC2(CCCCC2)CC1)C(=O)CCC(=O)N1c2ccccc2C(=O)Nc2cccnc21 [Compound 2]	55.9 nM	0.733 nM	76		increase in the positive refractive value	superior to the negative control group	comparable to the negative control group
CCN(CCN(C)CC1CCC2(CCCCC2)CC1)C(=O)CCC(=O)N1c2ccccc2C(=O)Nc2cccnc21 [Compound 3]	6820 nM	6.54 nM	1041				
O=C1Nc2cccnc2N(C(=O)CCC(=O)N2CCCC2CN2CCC3(CCCCC3)CC2)c2ccccc21 (stereo not drawn) [Compound 15]	247 nM	1.14 nM	217.6				
CCN(CCN(C)C12CC3CC(CC(C3)C1)C2)C(=O)CCC(=O)N1c2ccccc2C(=O)Nc2cccnc21 [Compound 6]	723 nM	0.863 nM	838				
O=C1Nc2cccnc2N(C(=O)CCC(=O)N2CCCCC2CN2CCC3(CCCCC3)CC2)c2ccccc21 (stereo not drawn) [Compound 14]	328 nM	0.833 nM	394.1				
CCN(CCN(C)C1CC2(CCC2)C1)C(=O)CCC(=O)N1c2ccccc2C(=O)Nc2cccnc21 [Compound 9]	881 nM	2.98 nM	295.7				
CCN(CCN(C)C1CC2(CCCCC2)C1)C(=O)CCC(=O)N1c2ccccc2C(=O)Nc2cccnc21 [Compound 10]	1970 nM	2.58 nM	762				
CCN(CC)CC1CCCCN1CC(=O)N1c2ccccc2C(=O)Nc2cccnc21 (stereo not drawn) [AFDX-116, reference compound]	2100 nM	166 nM	12				

More lines, main results first:

IC50 [1]	IC50 [2, 4]	M3/M2 selectivity [2]	Structure (SMILES)	IC50 [2]	diopter (refractive value) ([3]; day 15, 0.5 wt% compound 2 eye drops, right eye, form deprivation by eyelid suture)	slowing down the progression of refraction decrease ([3]; day 15 of administration)	slowing down the progression of refraction decrease ([3]; day 29 of administration)
277 nM	1.86 nM	149	CCN(CCN(C)C1CCC2(CCCC2)C1)C(=O)CCC(=O)N1c2ccccc2C(=O)Nc2cccnc21 (stereo not drawn) [Compound 11]				
54.1 nM	0.714 nM	75.87	CCN(CCN1CC2CC2C1)C(=O)CCC(=O)N1c2ccccc2C(=O)Nc2cccnc21 (stereo not drawn) [Compound 7]				
141 nM	0.896 nM	157.7	CCN(CCN1CCC2(CCC2)CC1)C(=O)CCC(=O)N1c2ccccc2C(=O)Nc2cccnc21 [Compound 8]				
132 nM	1.49 nM	88.6	CCN(CCN(C)CC12CCC(CC1)C2)C(=O)CCC(=O)N1c2ccccc2C(=O)Nc2cccnc21 [Compound 4]				
184 nM	1.82 nM	101	CCN(CCN(C)C1CC2CCCC2C1)C(=O)CCC(=O)N1c2ccccc2C(=O)Nc2cccnc21 (stereo not drawn) [Compound 12]				
611 nM	3.23 nM	189	CCN(CCN(C)C1CCC2(CCCCC2)CC1)C(=O)CCC(=O)N1c2ccccc2C(=O)Nc2cccnc21 [Compound 1]				
260 nM	5.46 nM	47.6	CCN(CCN(C)C1C2CCCC21)C(=O)CCC(=O)N1c2ccccc2C(=O)Nc2cccnc21 (stereo not drawn) [Compound 13]				

Reference: patent EP4813988A1, “AI-DESIGNED BENZODIAZEPINE DERIVATIVE AND USE THEREOF” (Shenzhen Newrosetta Biosciences Co., Ltd, priority 2024, dated 2025)
